Literature values in US6680321B1, “Compounds with analgesic effect” (AstraZeneca Canada, Inc., priority 1995, dated 2004).

Columns and labels:
[1] = target: δ receptor (Homo sapiens, UniProt P41143)
[2] = in vivo
[3] = target: μ receptor (Homo sapiens, UniProt P35372)
Chain of μ receptor (P35372 whole entry): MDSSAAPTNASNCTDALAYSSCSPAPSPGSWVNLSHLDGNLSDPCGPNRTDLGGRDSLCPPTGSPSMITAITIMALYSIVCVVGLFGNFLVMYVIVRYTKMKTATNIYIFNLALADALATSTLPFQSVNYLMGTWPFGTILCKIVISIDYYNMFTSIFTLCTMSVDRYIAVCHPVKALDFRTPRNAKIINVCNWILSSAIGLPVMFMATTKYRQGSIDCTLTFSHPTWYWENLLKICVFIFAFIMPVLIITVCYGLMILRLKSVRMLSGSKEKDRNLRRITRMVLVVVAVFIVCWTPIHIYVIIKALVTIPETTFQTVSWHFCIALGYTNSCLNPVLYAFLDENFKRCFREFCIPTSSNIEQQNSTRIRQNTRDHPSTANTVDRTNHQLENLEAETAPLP

Chain of δ receptor (P41143 whole entry): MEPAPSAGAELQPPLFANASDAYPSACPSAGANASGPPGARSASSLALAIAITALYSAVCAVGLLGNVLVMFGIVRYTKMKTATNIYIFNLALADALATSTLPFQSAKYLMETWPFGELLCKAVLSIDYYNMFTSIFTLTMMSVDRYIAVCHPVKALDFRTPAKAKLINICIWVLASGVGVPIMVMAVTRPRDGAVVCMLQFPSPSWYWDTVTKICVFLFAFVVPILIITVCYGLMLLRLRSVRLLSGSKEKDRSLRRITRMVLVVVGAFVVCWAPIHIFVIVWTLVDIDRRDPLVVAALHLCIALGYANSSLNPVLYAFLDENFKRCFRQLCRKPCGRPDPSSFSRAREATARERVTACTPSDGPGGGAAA

With `Oc1ccc2c3c1O[C@H]1c4[nH]c5ccccc5c4C[C@@]4(O)[C@@H](C2)N(CC2CC2)CC[C@]314` [naltrindole] as the molecule, how does the “selectivity for the δ receptor vs μ′ receptor binding” value [1] read?
The value was < 10 fold.

What about the analgesic activity [2] of the same molecule?
The analgesic activity was “no analgesic activity”.

For `C=CCN1C[C@H](C)N([C@H](c2ccc(C(=O)N(CC)CC)cc2)c2cccc(O)c2)C[C@H]1C` [BW 373U86], which “affinity for the μ receptor” value [3] is on record?
Its value is “significant affinity”.

And the analgesic activity [2]?
Its analgesic activity is “with analgesic activity”.
